The PolyMetriX glass transition set
± gives the standard deviation of the reports.

SMILES	glass transition temperature [°C]
*CCCCCCCCCCOc1ccc(/C=C/c2ccc(OCCCCCCCCCCOP(=O)(O*)OCCCCCCCCCCOc3ccc(/N=N/c4ccc(C#N)cc4)cc3)cc2)cc1 (repeat unit)	60.00
*Oc1c(C)cc(C2(c3cc(C)c(OC(=O)c4cccc(C(*)=O)c4)c(C)c3)c3ccccc3-c3ccccc32)cc1C (repeat unit)	315.00
*CC(*)(C)C(=O)OC1CCCCC1 (repeat unit) [Poly(cyclohexyl methacrylate)]	101.92 ± 20
*CCN1C(=O)c2ccc(C(c3ccc4c(c3)C(=O)N(*)C4=O)(C(F)(F)F)C(F)(F)F)cc2C1=O (repeat unit)	180.00
*CC(O)COc1ccc(S(=O)(=O)c2ccc(OCC(O)COc3cccc(O*)c3)cc2)cc1 (repeat unit)	105.00
*CC(*)c1ccccc1COCCCCC (repeat unit)	47.00
*CC(*)CCCCCCCCCCCCCC (repeat unit)	-24.00
*Oc1ccc(SSc2ccc(*)cc2)cc1 (repeat unit)	76.80
*C(=O)c1ccc(C(=O)c2ccc3c(c2)C(=O)N(c2ccc(C(=O)c4ccc(C(=O)c5ccc(N6C(=O)c7ccc(*)cc7C6=O)cc5)cc4)cc2)C3=O)cc1 (repeat unit)	260.00
*CC(*)(C)c1nc(N(CCOCCOCCOC)CCOCCOCCOC)nc(N(CCOCCOCCOC)c2ccccc2)n1 (repeat unit)	-75.00
*c1ccc(Oc2c(C)cc(Cc3cc(C)c(Oc4ccc(N5C(=O)c6ccc(-c7ccc8c(c7)C(=O)N(*)C8=O)cc6C5=O)cc4)c(C)c3)cc2C)cc1 (repeat unit)	310.00
*C(=O)Oc1ccc(OC(=O)c2ccc3c(c2)C(=O)N(c2ccc(Oc4ccc(N5C(=O)c6ccc(*)cc6C5=O)cc4)cc2)C3=O)c(C(C)(C)C)c1 (repeat unit)	189.00
*Oc1ccc(C(=O)c2ccc(Oc3ccc(C(=O)c4ccc(C(=O)c5ccc(*)cc5)cc4)cc3)cc2)cc1 (repeat unit)	169.00
*C(=O)Nc1cccc(Oc2ccc(S(=O)(=O)c3ccc(Oc4cccc(NC(=O)c5ccc(N6C(=O)c7ccc(*)cc7C6=O)cc5)c4)cc3)cc2)c1 (repeat unit)	235.00
*CC(*)c1ccccc1COCCC(C)C (repeat unit)	78.00
*Oc1ccc(S(=O)(=O)c2ccc(Oc3ccc(NC(=O)c4ccc(-c5ccc(C(=O)Nc6ccc(*)cc6)c(C)c5)cc4C)cc3)cc2)cc1 (repeat unit)	251.00
*CC(*)(C)C(=O)OCCCCCCN1CCN(c2ccc(/N=N/c3ccc([N+](=O)[O-])cc3)cc2)CC1 (repeat unit)	60.00
*c1ccc(Oc2ccc3ccccc3c2-c2c(Oc3ccc(N4C(=O)c5ccc(NC(=O)Nc6cccc(NC(=O)Nc7ccc8c(c7)C(=O)N(*)C8=O)n6)cc5C4=O)cc3)ccc3ccccc23)cc1 (repeat unit)	283.00
*c1ccc(Oc2ccc(-c3ccc(Oc4ccc(N5C(=O)c6ccc(Oc7ccc(C8(c9ccc(Oc%10ccc%11c(c%10)C(=O)N(*)C%11=O)cc9)CCC(c9ccccc9)CC8)cc7)cc6C5=O)cc4)cc3C)c(C)c2)cc1 (repeat unit)	226.00
*CC(O*)c1ccco1 (repeat unit)	12.50
*Oc1ccc(C(C)(C)c2ccc(OC(=O)OCC3CCC(COC(*)=O)CC3)cc2)cc1 (repeat unit)	90.40

SMILES	glass transition temperature [°C]
*O[Si](*)(CCCOCCOCCOCCOCCOCCOCCOCCOC)CCCOCCOCCOCCOCCOCCOCCOCCOC (repeat unit)	-66.40
*c1ccc(Oc2ccc(Oc3ccc(N4C(=O)c5ccc(Oc6ccc(C7(c8ccc(Oc9ccc%10c(c9)C(=O)N(*)C%10=O)cc8)CCCCCCCCCCC7)cc6)cc5C4=O)cc3)c(C(C)(C)C)c2)cc1 (repeat unit)	262.00
*CC(*)(C)C(=O)OCc1c(F)cccc1F (repeat unit)	82.00
*CC(*)CCCC (repeat unit)	-50.00
*C(=O)OCCOC(=O)N1CCN(*)CC1 (repeat unit)	60.00
*Oc1cccc(Oc2ccc(NC(=O)c3ccc(Oc4cccc(Oc5ccc(C(=O)Nc6ccc(*)cc6)cc5)c4)cc3)cc2)c1 (repeat unit)	176.50
*c1ccc(Oc2ccc(-n3c(=O)c4c(Oc5ccc(OCCCCCCCCCCCC)cc5)c5c(=O)n(*)c(=O)c5c(Oc5ccc(OCCCCCCCCCCCC)cc5)c4c3=O)cc2)cc1 (repeat unit)	218.00
*C(=O)Nc1ccc(Oc2ccc(-c3ccc(Oc4ccc(NC(=O)c5ccc6c(c5)C(=O)N(c5ccc(Oc7ccc(C8(c9ccc(Oc%10ccc(N%11C(=O)c%12ccc(*)cc%12C%11=O)cc%10)cc9)CC9CC8C8CCCC98)cc7)cc5)C6=O)cc4)cc3C)c(C)c2)cc1 (repeat unit)	265.00
*/C=C/c1ccc(OC(=O)c2ccc(C(=O)Oc3cccc4ccc(*)nc34)cc2)cc1 (repeat unit)	112.00
*Oc1ccc(CC(NC(=O)CCc2ccc(OC(=O)COCCOCC(*)=O)cc2)C(=O)OCCCCCC)cc1 (repeat unit)	28.00
*CC(COc1ccc(-c2ccc(C#N)cc2)cc1)O* (repeat unit)	94.2
*CCCCC(=O)Oc1ccc(OC(=O)c2ccc3c(c2)C(=O)N(*)C3=O)c(C)c1 (repeat unit)	75.76
*OC(COC(=O)c1ccc(C(*)=O)c2ccccc12)COc1ccc(/N=N/c2ccc(C#N)cc2)cc1 (repeat unit)	117.00
*c1ccc(-c2sc(-c3cc(CCCCCCCC)c(*)s3)cc2CCCCCCCC)cc1 (repeat unit)	50.40
*c1ccc(-c2ccc(-c3ccc4nc(Oc5cc(-c6ccccc6)c6cc(*)ccc6n5)cc(-c5ccccc5)c4c3)cc2)cc1 (repeat unit)	308.00
*C(=O)Oc1ccc(OC(=O)c2ccc3c(c2)C(=O)N(c2ccc(Oc4ccc(Oc5ccc(N6C(=O)c7ccc(*)cc7C6=O)cc5)cc4)cc2)C3=O)cc1 (repeat unit)	230.00
*Cc1ccc(COC(=O)Cc2ccc(C(=O)O*)cc2)cc1 (repeat unit)	47.00
*OC1C(C)(C)C(OC(=O)c2ccc(C(*)=O)cc2)C1(C)C (repeat unit)	184.00
*CC(*)c1ccc(CCCCCCCCCC)cc1 (repeat unit)	-65.00
*CCCCCCOC(=O)NCc1ccc(CNC(=O)O*)cc1 (repeat unit)	56.00
*c1ccc(C(=O)Nc2cccc(Oc3ccc(S(=O)(=O)c4ccc(Oc5cccc(NC(=O)c6ccc(N7C(=O)c8ccc(-c9ccc%10c(c9)C(=O)N(*)C%10=O)cc8C7=O)cc6)c5)cc4)cc3)c2)cc1 (repeat unit)	262.00

SMILES	glass transition temperature [°C]
*c1ccc(Oc2c(C)cc(-c3cc(C)c(Oc4ccc(N5C(=O)c6ccc(Oc7ccccc7Oc7ccc8c(c7)C(=O)N(*)C8=O)cc6C5=O)cc4C(F)(F)F)c(C)c3)cc2C)c(C(F)(F)F)c1 (repeat unit)	270.00
*CC(COc1ccc(C(C)(C)c2ccc(O*)cc2)cc1)OC(=O)/C=C/c1ccco1 (repeat unit)	107.20
*CCC(C)(C)CC(C)CNC(=O)c1ccc(C(=O)N*)cc1 (repeat unit)	148.00
*C(=O)c1ccc2c(c1)C(=O)N(c1cccc(C(=O)N(C)c3ccc(N4C(=O)c5ccc(*)cc5C4=O)cc3)c1)C2=O (repeat unit)	260.50
*NNC(=O)/C=C/C(=O)NCCCCCCNC(=O)/C=C/C(*)=O (repeat unit)	102.40
*CCCCCOC(=O)c1ccc(C(=O)O*)cc1 (repeat unit)	16.00
*c1ccc(Oc2ccc(-c3cnc4ccc(Oc5ccc6nc(*)cnc6c5)cc4n3)cc2)cc1 (repeat unit)	270.00
*/C=C/c1sc(-c2ccc3c(c2)C(CCCCCC)(CCCCCC)c2cc(-c4sc(/C=C/C5=CC(=C(C#N)C#N)C=C(*)O5)c(CCCCCC)c4CCCCCC)ccc2-3)c(CCCCCC)c1CCCCCC (repeat unit)	115.00
*Cc1ccccc1C[Si](*)(C)C (repeat unit)	75.00
*Oc1ccc(C(c2ccc(OC(*)=O)cc2)(C(F)(F)Cl)C(F)(F)Cl)cc1 (repeat unit)	183.50
*O[Si](C)(C)O[Si](C)(C)O[Si](C)(C)O[Si](C)(C)O[Si](C)(C)c1ccc([Si](*)(C)C)cc1 (repeat unit)	-80.00
*c1ccc(Oc2ccc(C(c3ccc(Oc4ccc(N5C(=O)c6ccc(Oc7ccccc7Oc7ccc8c(c7)C(=O)N(*)C8=O)cc6C5=O)cc4C(F)(F)F)cc3)(C(F)(F)F)C(F)(F)F)cc2)c(C(F)(F)F)c1 (repeat unit)	191.00
*CCCCCCOc1ccc(N(c2ccccc2)c2ccc(-c3ccc(N(c4ccccc4)c4ccc(O*)cc4)cc3)cc2)cc1 (repeat unit)	85.00
*OC(=O)OCCOCCOCCOCCOC(=O)OC1COC2C(*)COC12 (repeat unit)	9.50
*CC(*)(C)C(=O)Oc1ccc(C(=O)Oc2ccc(C)cc2)cc1 (repeat unit)	98.00
*Oc1ccc(CC(NC(=O)CCc2ccc(OC(=O)COCCOCC(*)=O)cc2)C(=O)OC)cc1 (repeat unit)	63.00
*c1ccc(Oc2ccc(NC(=O)c3ccc(C(=O)Nc4ccc(Oc5ccc(-c6nnc(*)o6)cc5)cc4)c(Oc4ccccc4)c3)cc2)cc1 (repeat unit)	245.00
*c1ccc2c(c1)C(=O)N(c1ccc(N(C)CCN(C)c3ccc(N4C(=O)c5ccc(C(*)(C(F)(F)F)C(F)(F)F)cc5C4=O)cc3)cc1)C2=O (repeat unit)	227.00
*C1C(=O)N(CCCCOc2ccc(-c3ccc(C#N)cc3)cc2)C(=O)C1* (repeat unit)	115.00
*c1ccc(Oc2ccc(Oc3ccc(Oc4ccc(-c5cnc6ccc(-c7ccc8nc(*)cnc8c7)cc6n5)cc4)cc3)cc2)cc1 (repeat unit)	216.00
*CC(*)(C)C(=O)OC(C)C(C)(C)C (repeat unit)	108.00
